The values below come from ChEMBL document CHEMBL1201862, “PubChem BioAssay data set” (2004).

Structures are written as SMILES.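 48-hour exposure; five concentrations; linearly interpolated endpoints. GI50 = concentration required for 50% inhibition of growth.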 Activity calls are given as the source filed them. Cut-off read from the data, not from the text of the source: active = GI50 up to about 1.1 µM and inactive = higher. A value given as a limit tells only on which side of the number the result lay.

Assay in all cases: DTP human tumour cell line panel, 48 h
For assay [1], the system named is HOP-62.
For assay [2], the system named is 786-0.
In assay [3] the test system is SF-295.
Assay [4] relates to UO-31.
The subject of assay [5] is HCT-116.
In assay [6] the test system is NCI-H23.
The test system of assay [7] is SR.
For assay [8], the system named is Malme-3M.
Assay [9] deals with T47D.
Assay [10] has as its system A549.
For assay [11], the system named is UACC-62.
Assay [12] concerns TK-10.
In assay [13] the test system is OVCAR-4.
The test system of assay [14] is BT-549.
In assay [15] the test system is CAKI-1.
Assay [16] deals with HT-29.
For assay [17], the system named is NCI-H460.
Assay [18] relates to DU-145.

The GI50 is the concentration giving 50% growth inhibition. Take `COCOc1cc(OC)ccc1C/C=N/O`: the GI50 in [1], in [2], in [3], in [4], in assay [5] and in assay [6] was > 100 µM (inactive) in each case. Besides, the GI50 in assay [7], in [8], in assay [9], in assay [10], in [11] and in assay [12] was > 100 µM (inactive) throughout. Also, the GI50 in [13], in assay [14], in [15], in assay [16], in [17] and in assay [18] was > 100 µM (inactive) each time.
Consider `O=C(O)CN1CCN2CCOCCOCCN(CC1)CCN(CC(=O)O)CC2`, for which the GI50 in assay [1], in assay [2], in assay [3], in [4], in [5] and in assay [7] was > 100 µM (inactive) throughout. Moreover, the GI50 in assay [8], in assay [9], in assay [10], in assay [11], in assay [12] and in assay [13] was > 100 µM (inactive) in each case. In addition, the GI50 in assay [14], in assay [15], in [16], in [17] and in assay [18] was > 100 µM (inactive) throughout.
In the case of `CN(C)/C=N/S(=O)(=O)c1nn2c(C=O)c(-c3ccc(Cl)cc3)nc2s1`, the GI50 was 13.2 µM (inactive) in assay [1]; 1.25 µM (inactive) in assay [2]; 14.4 µM (inactive) in [3]; 1.02 µM (active) in assay [4]; 0.693 µM (active) in [5]; 2.34 µM (inactive) in [6]. Besides, the 50% growth inhibitory concentration (GI50) in assay [7] was 0.767 µM (active); in [8], 1.47 µM (inactive); in assay [9] it was 1.67 µM (inactive); in [10] it was 8.26 µM (inactive); in assay [11], 3.91 µM (inactive); in assay [12], 1.5 µM (inactive). The GI50 in assay [13] was 1.81 µM (inactive); in assay [14], 0.713 µM (active); in [15] it was 0.995 µM (active); in assay [16], 0.196 µM (active); in [17], 6.28 µM (inactive); in [18] it was 2.12 µM (inactive).
For `O=C(O)CN1C(=O)c2ccc(NC(=O)C(=O)O)cc2S1(=O)=O`, the GI50 in [1] was > 100 µM (inactive); in assay [2], > 100 µM (inactive); in [3], > 100 µM (inactive); in assay [4], 89.7 µM (inactive); in assay [5], > 100 µM (inactive); in [6], > 100 µM (inactive). The GI50 in assay [7], in [8], in assay [9], in assay [10], in assay [11] and in assay [12] was > 100 µM (inactive) each time. For the same compound, the GI50 in assay [13], in [14], in assay [15], in [17] and in assay [18] was > 100 µM (inactive) in each case.
Regarding `C=CCN1C[C@H](C)N([C@H](c2ccc(C(=O)N(CC)CCO)cc2)c2cccc(OC)c2)C[C@H]1C`, the GI50 in assay [1], in assay [2], in assay [3], in [4], in assay [5] and in [6] was > 100 µM (inactive) in each case. Also, the GI50 in assay [7] was 51.3 µM (inactive); in assay [8], > 100 µM (inactive); in assay [9] it was 38.5 µM (inactive); in assay [10], > 100 µM (inactive); in assay [11] it was > 100 µM (inactive); in assay [12], > 100 µM (inactive). In addition, the GI50 in assay [13] is > 100 µM (inactive); in assay [14], > 100 µM (inactive); in [15], > 100 µM (inactive); in assay [16], 47.6 µM (inactive); in assay [18], > 100 µM (inactive).
As for `O=C(C=P(c1ccccc1)(c1ccccc1)c1ccccc1)C12CC3CC(CC(C3)C1)C2`, the GI50 in assay [1] is 17.2 µM (inactive); in assay [2], 17.3 µM (inactive); in assay [4] it was 14.6 µM (inactive); in assay [5], 13.2 µM (inactive); in [6], 16.7 µM (inactive); in assay [7], 55 µM (inactive). The GI50 in assay [8] was 19.2 µM (inactive); in assay [9] it was 16.1 µM (inactive); in assay [10], 16.7 µM (inactive); in assay [11] it was 14.7 µM (inactive); in assay [12], 11.8 µM (inactive); in assay [13] it was 18.7 µM (inactive). For the same compound, the GI50 in [14] was 18.2 µM (inactive); in assay [15] it was 16.1 µM (inactive); in assay [16] it was 11.2 µM (inactive); in assay [17] it was 16.4 µM (inactive); in assay [18], 19.1 µM (inactive).
For `CCOP(=O)(OCC)C(=C1C=C(C(C)(C)C)C(=O)C(C(C)(C)C)=C1)P(=O)(OCC)OCC`, the GI50 in assay [1] was > 10 µM (inactive); in assay [2], > 4.09 µM (inactive); in [3] it was > 10 µM (inactive); in assay [4], > 10 µM (inactive); in assay [5] it was 2.54 µM (inactive); in assay [6], > 10 µM (inactive). Also, the GI50 was 3.64 µM (inactive) in [7]; 1.82 µM (inactive) in assay [8]; 2.13 µM (inactive) in [9]; > 10 µM (inactive) in assay [10]; > 10 µM (inactive) in assay [11]; 3.27 µM (inactive) in [12]. In addition, the GI50 was 1.87 µM (inactive) in assay [13]; 2.86 µM (inactive) in [14]; 3.33 µM (inactive) in assay [15]; > 10 µM (inactive) in assay [16]; > 10 µM (inactive) in assay [17]; > 10 µM (inactive) in assay [18].
With `CCOC(=O)C1=NN(c2ccc(C)cc2)C2(c3ccccc3)C=C(c3ccccc3)N(C)CCN12` (centres undefined), the GI50 in [1], in [2], in [3], in assay [4], in assay [5] and in assay [6] was > 100 µM (inactive) throughout. Moreover, the GI50 in [7] was 35.2 µM (inactive); in assay [8], > 100 µM (inactive); in assay [9], > 100 µM (inactive); in [10], > 100 µM (inactive); in assay [11], > 100 µM (inactive); in assay [12] it was > 100 µM (inactive). For the same compound, the GI50 in assay [13], in assay [14], in [15], in [16] and in [18] was > 100 µM (inactive) throughout.
